Test results: patent publication US9504676B2, “Molecules inhibiting a metabolic pathway involving the Syk protein tyrosine kinase and method for identifying said molecules” (CENTRE NATIONAL DE LA RECHERCHE SCIENTIFIQUE, priority 2008, dated 2016)

System: Syk mutants (Arg 68, Glu 121, Glu 155)
Assay: Binding of G4G11 with Syk mutants in the ADA method
Design: species or system murine
Settings: 5 μM of C-13
Excerpt: On the basis of this information and the known 3D structure of the peptide complex formed by the SH2 domains of Syk and ITAM motifs^17, the inventors used computing approaches to locate a putative binding site for C-13. A candidate cavity comprising the residues Ser 9, Gln 43, Phe 51, Ile 66, Glu 67, Arg 68, Glu 69, Leu 70, Asn 71, Gly 72, Thr 73, Tyr 74, Ala 75, Glu 121 and Glu 155 of human Syk protein (see FIG. 8A, SEQ ID No. 1) and situated in the vicinity of the G4G11 epitope was identified (FIG. 1C). A structural analysis specified that the residues Ser 9, Gln 43, Phe 51, Arg 68, Glu 121 and Glu 155 could be involved in the binding of the ligand, and could be mutated without impairing the 3D structure of the protein. To validate the cavity in more detail, these six amino acids were mutated individually and the Syk mutants were subjected to the ADA test.
• 1) Chemical products and antibodies. […] The binding of G4G11 with Syk was assessed by adding the 9E10 monoclonal antibody conjugated with HRP detecting the amino acid sequence EQKLISEEDLN of human c-myc protein located at the C-terminal end of the scFv fragment. To generate Syk mutants, targeted mutagenesis was used on GST:Syk 6-242 protein and the binding of G4G11 with the mutants was assessed in the presence of 5 μM of C-13. • 3) Cells, culture conditions and functional tests. […]

For COC(=O)c1ccccc1-c1ccc(/C=C2/SC(=S)N(Cc3ccccc3)C2=O)o1 [Molecule C-13, methyl 2-{5-[(3-benzyl-4-oxo-2-thioxo-1,3-thiazolidin-5-ylidene)methyl]-2-furyl}benzoate], the “effect of mutation of Arg 68, Glu 121 and Glu 155 of Syk on inhibition of G4G11 binding” value was “cancelled the inhibition”.
